Source: publication PMC12589998, “Development and validation of a UHPLC-QqQ-MS/MS method for simultaneous determination of fifteen major components from Oroxyli seed extract in rat plasma and its application in the pharmacokinetic study” (Frontiers in Pharmacology, 2025)
Read-outs that look alike come from different tables or passages of the source.

Key:
[1] = Pharmacokinetic study in rats after oral administration of OS extract (UHPLC-QqQ-MS/MS of plasma); assay type: in vivo, rat; conditions: for concentration at 0.5 h / AUC(0-inf) / AUC(0-t) / Cmax / Tmax / half-life: male
Protocol: The UHPLC-QqQ-MS/MS system consisted of a 1290 UHPLC and a 6470 mass spectrometer (Agilent Technologies). Chromatographic separation was realized on utilizing an ACQUITY UPLC BEH C18 column (2.1 × 100 mm, 1.7 μm) maintained at 35 °C. The mobile phase consisting of 0.1% formic acid in water (A) and acetonitrile (B) was utilized with the elution program set at 0 min–1 min, 5% B–30% B; 1 min–4 min, 30% B– 50% B; 4 min–8 min, and 50% B–90% B. The injection volume was 5 μL, and the flow rate was 0.3 mL/min. The mass spectrometry parameters in the negative ion mode, gas temperature, flow rate, and nebulizer pressure were 300 °C, 7 L/min, and 35 psi, respectively. The mass spectra properties of the 15 analytes and the IS are illustrated in Table 1.
To 100 μL of the plasma sample, 20 μL of methanol, 20 μL of IS solution (methylparaben, 1 μg/mL), and 5 μL of formic acid were added and vortexed for a duration of 2 min. Subsequently, the mixture underwent extraction with 800 μL of acetonitrile for 3 min. Following 10 min of centrifugation at 12,000 g, the supernatant was collected and evaporated to dryness under N2 to obtain the residue. Finally, the residue was reconstituted in 50% methanol (100 μL) and utilized for analysis.
Before initiating the study, six male SD rats underwent a 12-h fasting period, during which they were granted unrestricted access to water. Then, the rats were administered an oral dose of 3 g/kg of the OS extract, which had been dissolved in 0.5% CMC-Na aqueous solution. Blood samples, approximately 200 μL each, were collected at various time points: before administration and at 0.03, 0.08, 0.17, 0.25, 0.5, 0.75, 1, 2, 4, 6, 8, 10, 12, 24, 36, and 48 h post-administration. Following 10 min of centrifugation at 6,000 g, the resultant samples were stored at −80 °C.
The developed method was effectively applied to study the pharmacokinetics in rats following oral administration of the OS extract. […] This was likely due to their low concentrations in the OS extract. Ultimately, nine components (chrysin, chrysin-7-O-β-D-glucuronide, baicalin, baicalein, oroxin A, oroxin B, oroxylin A, oroxylin A-7-O-β-D-glucuronide, and scutellarein) were successfully fitted with pharmacokinetic parameters. The average plasma concentration–time profiles of these substances are depicted in Figure 3. […] All data were presented as the mean ± standard deviation (Mean ± SD).

[2] = Stability of the analytes in rat plasma samples under storage conditions; assay type: physicochemical; conditions: n = 6
Protocol: The bioanalytical method validation was evaluated for specificity, linearity, sensitivity, precision and accuracy, recovery, matrix effect, and stability to ensure compliance with the U.S. Food and Drug Administration (FDA) guidance on precise quantitative analysis ([Center for Drug Evaluation and Research of the U.S., 2018]). The assessment of specificity was conducted by comparing the chromatograms obtained from blank plasma, blank plasma spiked with the target components, and samples gathered following the oral administration of OS extract. Calibration curves were constructed by plotting the ratio for the peak area of the analyte to IS versus the concentration, with 1/x^2 serving as the weighting factor. The lower limit of quantification (LLOQ) was defined as the concentration at which a signal to noise ratio of […] 10 was achievable. The evaluation of precision and accuracy involved the analysis of six QC samples, both within a single day and over 3 consecutive days. Accuracy was expressed as the relative error (RE), whereas precision was gauged via relative standard deviation (RSD). Extraction recovery was ascertained by juxtaposing the responses of analytes in extracted samples against those in samples that were spiked post-extraction. The matrix effect was scrutinized by determining the ratio of the responses of the analytes in post-extraction spiked samples to those in the mixed standard solution. The stability of the analytes in plasma samples was explored under diverse conditions: encompassing a 12-h period in an autosampler, a 4-h interval at room temperature, three cycles of freezing–thawing, and a 7-day duration at −80 °C.
The retention times of the analyte peaks were consistent with those in the spiked samples. […] The LLOQs for chrysin, chrysin-7-O-β-D-glucuronide, hispidulin, wogonoside, quercetin, quercetin-7-O-β-D-glucoside, baicalin, baicalein, acacetin, oroxin A, oroxin B, oroxylin A, oroxylin A-7-O-β-D-glucuronide, apigenin, and scutellarein were 1.0, 2.0, 1.0, 0.3, 1.0, 0.1, 9.0, 6.0, 0.3, 6.0, 4.0, 1.0, 2.0, 0.5, and 0.3 ng/mL, respectively. In Supplementary Table S2, the RE for accuracy is between −13.77% and 12.55%, and the RSD for precision is below 14.55% (both intra- and inter-day). […] The matrix effect varied from 60.15% to 115.53%, with RSD values below 10.54%. In Supplementary Table S4, the RSD values for stability of the analytes are found to be lower than 13.98%, meaning that these components were stable under the following conditions: encompassing a 12-h period in an autosampler, a 4-h interval at room temperature, three cycles of freezing and thawing, and a 7-day duration at −80 °C.

[3] = spiked concentration 1600 ng/mL

Structure (SMILES)	concentration at 0.5 h ([1]; SD, rat, in vivo, po) [ng/mL]	AUC(0-inf) ([1]; SD, rat, in vivo, po, 3 g/kg) [ng·h/mL]	AUC(0-t) ([1]; SD, rat, in vivo, po, 3 g/kg) [ng·h/mL]	Cmax ([1]; SD, rat, in vivo, po, 3 g/kg) [ng/mL]	Tmax ([1]; SD, rat, in vivo, po, 3 g/kg) [h]	half-life ([1]; SD, rat, in vivo, po, 3 g/kg) [h]	Measured, -80°C for 7 days ([2]; spiked concentration 10 ng/mL) [ng/mL]	Measured, Autosampler for 12 h ([2]; spiked concentration 10 ng/mL) [ng/mL]	Measured, Room temperature for 4 h ([2]; spiked concentration 10 ng/mL) [ng/mL]	Measured, Three freeze-thaw cycles ([2]; spiked concentration 10 ng/mL) [ng/mL]	Measured, -80°C for 7 days ([2]; spiked concentration 100 ng/mL) [ng/mL]	Measured, Autosampler for 12 h ([2]; spiked concentration 100 ng/mL) [ng/mL]	Measured, Room temperature for 4 h ([2]; spiked concentration 100 ng/mL) [ng/mL]	Measured, Three freeze-thaw cycles ([2]; spiked concentration 100 ng/mL) [ng/mL]	Measured, -80°C for 7 days [2, 3] [ng/mL]	Measured, Autosampler for 12 h [2, 3] [ng/mL]	Measured, Room temperature for 4 h [2, 3] [ng/mL]	Measured, Three freeze-thaw cycles [2, 3] [ng/mL]	other results
COc1c(O)cc2oc(-c3ccccc3)cc(=O)c2c1O [Oroxylin A, oroxylin A]	165	3010	2840	512 ± 179	0.25 ± 0.00	7.7 ± 0.97	10.45 ± 0.29	10.51 ± 1.15	10.16 ± 0.90	10.69 ± 0.70	92.00 ± 7.39	90.43 ± 9.04	92.23 ± 5.62	88.86 ± 4.67	1720.89 ± 130.14	1797.17 ± 87.55	1790.22 ± 78.72	1733.57 ± 149.41	
O=c1cc(-c2ccccc2)oc2cc(O)cc(O)c12 [Chrysin, chrysin]	73	589 ± 303	550 ± 294	519 ± 197	0.06 ± 0.03	4.25 ± 2.01	9.25 ± 0.47	11.26 ± 1.24	10.87 ± 0.54	9.15 ± 0.40	91.73 ± 5.32	101.85 ± 8.18	99.57 ± 5.36	90.99 ± 3.81	1539.20 ± 116.03	1687.80 ± 77.00	1601.59 ± 94.45	1525.21 ± 82.94	
O=c1c(O)c(-c2ccc(O)c(O)c2)oc2cc(O)cc(O)c12 [Quercetin, quercetin]																			concentration at 0.5 h ([1]; SD, 3 g/kg, rat plasma collected 0.5 h after oral administration of the OS extract, read-out: Concentration printed in MRM chromatogram of plasma sample (Figure 2C)): 26 ng/mL; Tmax ([1]; rat plasma, oral 3 g/kg OS extract, n = 6, mean ± SD, read-out: Tmax): ~10 h; Plasma levels ([1]; rat plasma after oral OS extract): too weak to obtain comprehensive pharmacokinetic curves; Measured, -80°C for 7 days ([2]; spiked concentration 2 ng/mL): 1.81 ± 0.12 ng/mL; Measured, Autosampler for 12 h ([2]; spiked concentration 2 ng/mL): 1.90 ± 0.21 ng/mL; Measured, Room temperature for 4 h ([2]; spiked concentration 2 ng/mL): 1.80 ± 0.22 ng/mL; Measured, Three freeze-thaw cycles ([2]; spiked concentration 2 ng/mL): 1.80 ± 0.09 ng/mL; Measured, -80°C for 7 days ([2]; spiked concentration 20 ng/mL): 17.37 ± 0.79 ng/mL; Measured, Autosampler for 12 h ([2]; spiked concentration 20 ng/mL): 17.83 ± 1.42 ng/mL; Measured, Room temperature for 4 h ([2]; spiked concentration 20 ng/mL): 19.06 ± 1.54 ng/mL; Measured, Three freeze-thaw cycles ([2]; spiked concentration 20 ng/mL): 20.46 ± 0.77 ng/mL; Measured, -80°C for 7 days ([2]; spiked concentration 320 ng/mL): 285.05 ± 20.53 ng/mL; Measured, Autosampler for 12 h ([2]; spiked concentration 320 ng/mL): 325.17 ± 28.70 ng/mL; Measured, Room temperature for 4 h ([2]; spiked concentration 320 ng/mL): 298.43 ± 22.04 ng/mL; Measured, Three freeze-thaw cycles ([2]; spiked concentration 320 ng/mL): 288.07 ± 26.80 ng/mL
